From paper PMC7594877, “Multidirectional in vitro and in cellulo studies as a tool for identification of multi-target-directed ligands aiming at symptoms and causes of Alzheimer’s disease” (Journal of Enzyme Inhibition and Medicinal Chemistry, 2020)
Several values for one entry are separate records, joined by “and”; a condition that tells them apart may be missing. Equal values may be shown once.

Assays:
human BACE1 = molecular target: T1, human BACE1 (Homo sapiens, UniProt P56817); experiment: In vitro inhibition of human BACE1, FRET assay; assay type: biochemical; details: for IC50: mean of three experiments ± SEM, read-out: hBACE1 IC50; for hBACE1 % inhibition: at 10 µM per table footnote b, mean of three experiments ± SD; for BACE1 percentage of inhibition: screening concentration 50 µM
T1 construct: purchased Panvera, Madison, WI (BACE1 FRET Assay Kit); host or cells: baculovirus-expressed
Experimental: To further explore the multifunctional profile of the ligands, we screened them for their inhibitory activity against human BACE1 using spectrofluorometric assay (fluorescence resonance energy transfer (FRET)-based). […] Therefore, BACE1 inhibitors are now being tested in earlier stages of AD and in asymptomatic subjects at risk of AD, with the hope of blocking the disease process before it becomes irreversible.
BACE1 FRET Assay Kit (Panvera, Madison, WI) was performed according to the manufacturer’s protocol with small modifications. The Kit includes purified baculovirus-expressed BACE1 and specific peptide substrate (Rh-[…]-quencher), based on the “Swedish” mutant of APP. The analysis was carried, using 384-well black microplates and a microplate reader (EnSpire Multimode; PerkinElmer, Waltham, MA). The wavelength was optimised for the 553 nm excitation and 576 nm emission. Stock solutions of all test compounds were prepared in DMSO and further diluted with assay buffer (50 mM sodium acetate; pH 4.5). In the first step, 10 μL of BACE1 substrate was mixed with 10 μL of test compound (or assay buffer; i.e. blank sample), then 10 μL of the enzyme (1 U/mL) was added to start the reaction. After 60 min of incubation at 25 °C, 10 μL of stop solution (2.5 M sodium acetate) was applied to stop the reaction. The fluorescence signal was read at 576 nm. Percent of inhibition was calculated from [1 − (S60 − S0)/(C60 − C0)] × 100, where S0 and S60 are fluorescence intensities of the test sample (enzyme, substrate, test compound) at the beginning of the reaction and after 60 min, respectively, while C0 and C60 are analogical fluorescence intensities of the blank sample (enzyme, substrate, buffer). […] Each compound was analysed in triplicate. Commercially available BACE1 Inhibitor IV (Calbiochem, Merck; Nottingham, UK) was used as the reference compound. The IC50 values were calculated using nonlinear regression (GraphPad Prism 5 [GraphPad Software, San Diego, CA, 5.00]) by plotting the residual enzyme activities against the applied inhibitor concentration.

Aβ42 = molecular target: T2, Aβ42 (Homo sapiens, UniProt P05067); experiment: In cellulo Aβ42 aggregation inhibition, Thioflavin S fluorescence in E. coli overexpressing Aβ42; assay type: cell-based, Escherichia coli; details: at 10 µM; mean of three experiments ± SEM
T2 construct: expressed in transfected cells; host or cells: E. coli BL21 (DE3) with pET28a-Aβ42, IPTG-induced
From the text: (§1) We screened multifunctional ligands from our in-house library for their anti-aggregating activity against Aβ and tau in the whole bacterial cells using the Thioflavin S (ThS) fluorescence assay. Bacterial cells overexpressing different proteins provide simple models that can be easily employed to monitor the mechanisms of protein aggregation related to a variety of conformational diseases[36]^,[37]. In our assay, E. coli system has been implemented to study the effect of potential Aβ42 and tau aggregation inhibitors within intact cells. The advantage of the test over in vitro tests is the fact that it considers the complexity of the cellular environment that plays a crucial role in tuning protein aggregation. This assay has been validated and successfully applied to assess the anti-aggregating properties of diverse chemical structures. Previously investigated tetrahydrobenzo[h][1,6] naphthyridine-6-chlorotacrine hybrid DP-128 was used as a reference compound[38]^,[39].
(§2) The assays were conducted according to the procedure described previously. All general chemicals were purchased from Sigma-Aldrich (St. Louis, MO) . Reagents for bacterial media were purchased from Conda (Sevilla, Spain). M9 minimal medium for 100 mL: 10 mL of salts 10× (0.68 g of Na2HPO4, 0.30 g of KH2PO4, 0.05 g of NaCl, 0.10 g of NH4Cl), 0.2 mL of 1 M MgSO4, 0.2 mL of 50 mM CaCl2, 2.5 mL of 20% glucose, and 87.1 mL of H2O.
(§3) E. coli competent cells BL21 (DE3) were transformed with the pET28a vector (Novagen, Inc., Madison, WI) carrying the DNA sequence of Aβ42 or with pTARA containing the RNA polymerase gene of T7 phage (T7RP) under the control of the promoter pBAD, then with pRKT42 vector encoding four repeats of tau protein in two inserts. For overnight culture preparation, 10 ml of M9 minimal medium containing 50 μg/mL of kanamycin (Aβ42) or 50 μg/mL of ampicillin and 12.5 μg/mL of chloramphenicol (tau) were inoculated with a colony of BL21 (DE3) bearing the plasmid Aβ42 or tau plasmids to be expressed at 37 °C and 180 rpm using an incubator shaker (Ovan, Barcelona, Spain). After overnight growth, the OD600 was usually 2 − 2.5. For expression of Aβ42 peptide/tau protein, 200 μL of overnight culture were transferred into Eppendorf tubes of 1.5 mL containing 790 μL of fresh M9 minimal medium with 50 μg/mL of kanamycin1 mM of isopropyl 1-thio-β-D-galactopyranoside (IPTG) (Aβ42) or 50 μg/mL of ampicillin, 12.5 μg/mL of chloramphenicol, 0.25% of arabinose (tau), and 25 μM of ThS and 10 μL of reference, tested compounds (1 mM in DMSO, final concentration: 10 μM) or DMSO. The samples were grown for 24 h at 37 °C and 180 rpm using an incubator shaker (Ovan). The samples with DMSO were prepared as a negative control (maximum level of Aβ42/tau, 0% of inhibition). In the positive controls, the M9 medium without IPTG (minimal level of Aβ42) or arabinose (minimal level of tau) was used. For absorbance and fluorescence determination, 200 μL of each Eppendorf tube was transferred in triplicate into 96-well plate. Finally, the fluorescence emission at 520 nm, when exciting at 440 nm and absorbance at 600 nm was recorded using the multi-mode microplate reader (Beckman Counter, Brea, CA). The absorbance at 600 nm (OD600) of these samples was assessed to check the bacterial growth and potential intrinsic toxicity of the tested compounds. Final data are the average of three independent experiments. DP-128 was used as a reference compound[38].

tau = molecular target: T3, tau (Homo sapiens, UniProt P10636); experiment: In cellulo tau aggregation inhibition, Thioflavin S fluorescence in E. coli overexpressing tau; assay type: cell-based, Escherichia coli; details: at 10 µM; mean of three experiments ± SEM
T3 construct: expressed in transfected cells; host or cells: E. coli BL21 (DE3) with pTARA (T7 RNA polymerase under pBAD) and pRKT42
From the text: as §1, §2, §3

eqBuChE = details: read-out: eqBuChE IC50; cited from earlier work
hAChE = details: read-out: hAChE IC50; cited from earlier work

T1 sequence (P56817 46-501): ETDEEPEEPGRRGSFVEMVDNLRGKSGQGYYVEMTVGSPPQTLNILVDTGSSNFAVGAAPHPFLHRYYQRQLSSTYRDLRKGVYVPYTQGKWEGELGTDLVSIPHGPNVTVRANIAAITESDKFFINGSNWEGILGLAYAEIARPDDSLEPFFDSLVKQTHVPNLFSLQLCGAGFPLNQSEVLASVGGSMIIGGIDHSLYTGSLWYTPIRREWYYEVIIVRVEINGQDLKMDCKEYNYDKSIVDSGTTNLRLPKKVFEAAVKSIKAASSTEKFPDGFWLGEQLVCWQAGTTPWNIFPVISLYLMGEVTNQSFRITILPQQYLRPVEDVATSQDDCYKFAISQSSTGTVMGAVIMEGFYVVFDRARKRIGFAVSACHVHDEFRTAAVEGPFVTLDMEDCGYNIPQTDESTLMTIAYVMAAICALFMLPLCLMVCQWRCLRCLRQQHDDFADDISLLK
T3 sequence (P10636 other isoform, or with tags, fused parts or gaps): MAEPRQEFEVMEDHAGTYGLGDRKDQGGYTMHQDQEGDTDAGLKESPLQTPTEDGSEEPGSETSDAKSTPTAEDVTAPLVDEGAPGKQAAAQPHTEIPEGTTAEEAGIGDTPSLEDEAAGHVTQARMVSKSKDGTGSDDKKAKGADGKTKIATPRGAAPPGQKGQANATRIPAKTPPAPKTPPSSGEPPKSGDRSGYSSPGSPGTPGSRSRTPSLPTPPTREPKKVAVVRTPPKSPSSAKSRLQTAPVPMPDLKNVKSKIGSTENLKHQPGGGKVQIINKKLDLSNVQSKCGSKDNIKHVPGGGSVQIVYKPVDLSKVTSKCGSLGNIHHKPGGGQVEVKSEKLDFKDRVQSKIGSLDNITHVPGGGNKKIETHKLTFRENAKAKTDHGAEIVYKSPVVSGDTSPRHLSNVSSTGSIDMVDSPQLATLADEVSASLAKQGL
T2 sequence (P05067 672-713): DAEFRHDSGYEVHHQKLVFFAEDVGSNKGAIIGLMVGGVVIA

SMILES	IC50 (human BACE1)	In cellulo Aβ42 inhibition % (Aβ42)	In cellulo tau inhibition % (tau)	hBACE1 % inhibition (human BACE1)	IC50 (eqBuChE) [µM]	IC50 (hAChE) [µM]	BACE1 percentage of inhibition (human BACE1)
O=S(=O)(c1ccccc1)n1ccc2c(N3CCN(CCNc4c5c(nc6ccccc46)CCCC5)CC3)cccc21 [Compound 1]	1.58 ± 0.15 µM	40.7 ± 4.3%	58.1 ± 4.8%	–	–	–	–
O=S(=O)(c1ccccc1)n1ccc2c(N3CCN(CCCCCNc4c5c(nc6ccccc46)CCCC5)CC3)cccc21 [Compound 2]	8.07 ± 0.15 µM	–	–	–	–	–	–
O=S(=O)(c1ccccc1)n1ccc2c(N3CCN(CCCCCCCNc4c5c(nc6ccccc46)CCCC5)CC3)cccc21 [Compound 4]	1.31 ± 0.06 µM	58.8 ± 4.2%	46.4 ± 5.9%	–	–	–	–
O=S(=O)(c1ccccc1)n1ccc2c(N3CCN(CCCCCCCCNc4c5c(nc6ccccc46)CCCC5)CC3)cccc21 [Compound 5]	2.29 ± 0.13 µM	61.8 ± 4.1%	52.7 ± 5.7%	–	–	–	–
O=S(=O)(c1ccccc1)n1ccc2c(N3CCN(CCNCc4ccccc4)CC3)cccc21 [Compound 6]	–	64.8 ± 3.4%	54.6 ± 6.2%	67.4% ± 4.8	–	–	–
O=S(=O)(c1ccccc1)n1ccc2c(N3CCN(CCCNCc4ccccc4)CC3)cccc21 [Compound 7]	5.82 ± 0.34 µM	48.3 ± 4.2%	39.7 ± 3.8%	–	–	–	–
O=S(=O)(c1ccccc1)n1ccc2c(N3CCN(CCCCNCc4ccccc4)CC3)cccc21 [Compound 8]	19.7 ± 1.54 µM	54.5 ± 3.8%	45.1 ± 5.1%	–	–	–	–
O=S(=O)(c1ccccc1)n1ccc2c(N3CCN(CCCCCNCc4ccccc4)CC3)cccc21 [Compound 9]	23.4 ± 1.6 µM	48.0 ± 4.0%	44.8 ± 5.6%	–	–	–	–
c1ccc(Cn2ccc3c(N4CCN(CCNc5c6c(nc7ccccc57)CCCC6)CC4)cccc32)cc1 [Compound 17]	4 µM and 4.09 µM	56% and 55.7 ± 2.8%	59% and 58.6 ± 4.5%	–	0.005	0.026	–
c1ccc(Cn2ccc3c(N4CCN(CCCNc5c6c(nc7ccccc57)CCCC6)CC4)cccc32)cc1 [Compound 18]	4.58 ± 0.21 µM	–	–	–	–	–	–
c1ccc(Cn2ccc3c(N4CCN(CCCCCNc5c6c(nc7ccccc57)CCCC6)CC4)cccc32)cc1 [Compound 19]	7.23 ± 0.38 µM	–	–	–	–	–	–
c1ccc(Cn2ccc3c(N4CCN(CCCCCCNc5c6c(nc7ccccc57)CCCC6)CC4)cccc32)cc1 [Compound 20]	–	66.9 ± 3.9%	64.0 ± 5.1%	62.1% ± 5.8	–	–	62%
c1ccc(CNCCCCN2CCN(c3cccc4c3ccn4Cc3ccccc3)CC2)cc1 [Compound 21]	21.9 ± 1.16 µM	12.2 ± 4.1%	41.3 ± 6.3%	–	–	–	–
c1ccc(CNCCCCCN2CCN(c3cccc4c3ccn4Cc3ccccc3)CC2)cc1 [Compound 22]	–	25.2 ± 3.4%	44.3 ± 6.5%	63.9% ± 7.7	–	–	–
c1ccc(CNCCCCCCN2CCN(c3cccc4c3ccn4Cc3ccccc3)CC2)cc1 [Compound 23]	30.9 ± 1.58 µM	16.4 ± 2.8%	28.4 ± 3.8%	–	–	–	–
c1ccc(CNCCCCCCCN2CCN(c3cccc4c3ccn4Cc3ccccc3)CC2)cc1 [Compound 24]	21.7 ± 1.57 µM	21.4 ± 3.4%	55.6 ± 4.2%	–	–	–	–
Cc1c(OCc2ccccc2)cccc1N1CCN(CCCNc2c3c(nc4ccccc24)CCCC3)CC1 [Compound 27]	5.76 ± 0.28 µM	64.9 ± 4.5%	64.5 ± 4.1%	–	–	–	–
Cc1c(OCc2ccccc2)cccc1N1CCN(CCCCCCNc2c3c(nc4ccccc24)CCCC3)CC1 [Compound 28]	–	64.2 ± 3.4%	64.8 ± 2.2%	67.4% ± 11.3	–	–	67%
Cc1c(OCc2ccccc2)cccc1N1CCN(CCCCCCCNc2c3c(nc4ccccc24)CCCC3)CC1 [Compound 29]	4.07 ± 0.27 µM	67.4 ± 4.1%	70.3 ± 3.9%	–	–	–	–
Cc1c(OCc2ccccc2)cccc1N1CCN(CCCCCCCCNc2c3c(nc4ccccc24)CCCC3)CC1 [Compound 30]	–	66.7 ± 5.1%	60.2 ± 2.6%	33.6% ± 11.1	–	–	34%
Cc1c(OCc2ccccc2)cccc1N1CCN(CCCNCc2ccccc2)CC1 [Compound 31]	–	24.4 ± 3.4%	39.5 ± 8.3%	34.0% ± 11.4	–	–	–
Cc1c(OCc2ccccc2)cccc1N1CCN(CCCCNCc2ccccc2)CC1 [Compound 32]	–	43.2 ± 5.4%	42.5 ± 6.3%	42.8% ± 12.7	–	–	42.8%
Cc1c(OCc2ccccc2)cccc1N1CCN(CCCCCNCc2ccccc2)CC1 [Compound 33]	–	29.0 ± 4.5%	55.8 ± 5.3%	31.5% ± 1.1	–	–	about 30%
